Measured values reported in patent US7728014B2, “Heteroaromatic compounds having sphingosine-1-phosphate (S1P) receptor agonist biological activity” (Allergan, Inc., priority 2006, dated 2010).

Experiments:
human S1P3 receptor = biological target: T1, human S1P3 receptor (Homo sapiens, UniProt Q99500); assay: FLIPR Ca+2 response assay, activation of human S1P3 receptor in T24 cells; type: cell-based; conditions: for EC50: T24 cells stably expressing human S1P3, tested 0.61 nM to 10,000 nM; for Emax at 10 µM: T-24, receptor activity at highest dose (10 μM) relative to that induced by 5 nM sphingosine-1-phosphate, read-out: S1P3 (% efficacy)
T1 construct: expressed in transfected cells
T1 sequence (Q99500 whole entry): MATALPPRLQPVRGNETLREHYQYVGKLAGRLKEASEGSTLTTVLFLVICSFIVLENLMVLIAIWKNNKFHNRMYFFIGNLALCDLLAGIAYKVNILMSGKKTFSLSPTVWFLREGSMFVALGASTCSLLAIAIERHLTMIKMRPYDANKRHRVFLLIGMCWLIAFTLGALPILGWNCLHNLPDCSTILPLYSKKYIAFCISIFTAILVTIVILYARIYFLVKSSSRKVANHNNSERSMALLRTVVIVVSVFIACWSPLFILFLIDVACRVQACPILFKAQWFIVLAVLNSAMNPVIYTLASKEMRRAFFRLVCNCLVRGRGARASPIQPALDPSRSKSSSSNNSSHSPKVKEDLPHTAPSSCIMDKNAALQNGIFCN
Protocol: Compounds were also assessed for their ability to activate or block activation of the human S1P3 receptor in T24 cells stably expressing the human S1P3 receptor. Ten thousand cells/well were plated into 384-well poly-D-lysine coated plates one day prior to use. The growth media for the S1P3 receptor expressing cell line was McCoy's 5A medium supplemented with 10% charcoal-treated fetal bovine serum (FBS), 1% antibiotic-antimycotic and 400 μg/ml geneticin. On the day of the experiment, the cells were washed twice with Hank's Balanced Salt Solution supplemented with 20 mM HEPES (HBSS/Hepes buffer). The cells were then dye loaded with 2 uM Fluo-4 diluted in the HBSS/Hepes buffer with 1.25 mM Probenecid and incubated at 37° C. for 40 minutes. Extracellular dye was removed by washing the cell plates four times prior to placing the plates in the FLIPR (Fluorometric Imaging Plate Reader, Molecular Devices). Ligands were diluted in HBSS/Hepes buffer and prepared in 384-well microplates. The positive control, Sphingosine-1-Phosphate (S1P), was diluted in HBSS/Hepes buffer with 4 mg/ml fatty acid free bovine serum albumin. The FLIPR transferred 12.5 μl from the ligand microplate to the cell plate and took fluorescent measurements for 75 seconds, taking readings every second, and then for 2.5 minutes, taking readings every 10 seconds. Drugs were tested over the concentration range of 0.61 nM to 10,000 nM. Data for Ca^+2 responses were obtained in arbitrary fluorescence units and not translated into Ca^+2 concentrations. IC50 values were determined through a […] regression analysis using the Levenburg Marquardt algorithm. In Table 1, NA is defined as “Not Active,” ND is defined as “Not Determined,” % efficacy is defined as “percent of receptor activity induced by a test compound at the highest dose test (10 μM) relative to the receptor activity induced by 5 nM sphingosine-1-phosphate,” and % inhibition is defined as “percent of receptor activity induced by 5 nM sphingosine-1-phosphate that is inhibited by a test compound at the highest dose tested (10 μM).”

perfused porcine eyes = conditions: IOVS 45, 2263, 2004; cited from earlier work

Row | SMILES | EC50 (human S1P3 receptor; NA = Not Active) | Emax at 10 µM (human S1P3 receptor) | EC50 (human S1P3 receptor) | decrease of outflow facility (perfused porcine eyes)
1 | CCOC(=O)c1nnc(-c2ccc(CC)cc2)c(-c2ccccc2)n1 [Example 13, Ethyl 6-(4-Ethylphenyl)-5-phenyl-1,2,4-triazine-3-carboxylate] | 1.6 µM | 57% | – | –
2 | CCOC(=O)c1nnc(-c2ccc(C)cc2)c(-c2ccccc2)n1 [Example 17, Ethyl 5-Phenyl-6-p-tolyl-1,2,4-triazine-3-carboxylate] | 2.9 µM | – | – | –
3 | CCOC(=O)c1nnc(-c2ccccc2)c(-c2ccc(C(F)(F)F)cc2)n1 [Example 19, Ethyl 5-(4-Trifluoromethylphenyl)-6-phenyl-1,2,4-triazine-3-carboxylatate] | – | 34% | – | –
4 | CCOC(=O)c1ccc(-c2ccccc2)c(-c2ccccc2)n1 [Example 21, Ethyl 5,6-diphenylpyridine-2-carboxylate] | 1.8 µM | 80% | – | –
5 | CCOC(=O)c1ccc(-c2ccc(C)cc2)c(-c2ccccc2)n1 [Example 22, Ethyl 6-Phenyl-5-p-tolyl-pyridine-2-carboxylate] | 0.74 µM | 32% | – | –
6 | CCOC(=O)c1ccc(-c2ccc(CC)cc2)c(-c2ccccc2)n1 [Example 23, Ethyl 5-(4-Ethyl-phenyl)-6-phenyl-pyridine-2-carboxylate] | 1.4 µM | 82% | – | –
7 | CCCc1ccc(-c2ccc(C(=O)OCC)nc2-c2ccccc2)cc1 [Example 24, Ethyl 6-Phenyl-5-(4-propylphenyl)-pyridine-2-carboxylate] | 3.1 µM | 50% | – | –
8 | CCOC(=O)c1ccc(-c2ccccc2)c(-c2ccc(C)cc2)n1 [Example 27, Ethyl 5-Phenyl-6-p-tolyl-pyridine-2-carboxylate] | 3.7 µM | 46% | – | –
9 | CCOC(=O)c1ccc(-c2ccccc2)c(-c2ccc(CC)cc2)n1 [Example 28, Ethyl 6-(4-Ethylphenyl)-5-phenyl-pyridine-2-carboxylate] | 2.9 µM | 48% | – | –
10 | COC(=O)c1ccc(-c2ccccc2)c(-c2ccccc2)n1 [Example 30, Methyl 5,6-diphenylpyridine-2-carboxylate] | 0.7 µM | 84% | – | –
11 | COC(=O)c1ccc(-c2ccc(C)cc2)c(-c2ccccc2)n1 [Example 31, Methyl 6-Phenyl-5-p-tolyl-pyridine-2-carboxylate] | 0.58 µM | 73% | – | –
12 | CCc1ccc(-c2ccc(C(=O)OC)nc2-c2ccccc2)cc1 [Example 32, Methyl 5-(4-Ethylphenyl)-6-phenyl-pyridine-2-carboxylate] | 0.57 µM | 88% | – | –
13 | CCCc1ccc(-c2ccc(C(=O)OC)nc2-c2ccccc2)cc1 [Example 33, Methyl 6-Phenyl-5-(4-propylphenyl)-pyridine-2-carboxylate] | 2.9 µM | 81% | – | –
14 | COC(=O)c1ccc(-c2ccccc2)c(-c2ccc(C(F)(F)F)cc2)n1 [Example 35, Methyl 5-Phenyl-6-(4-trifluoromethylphenyl)-pyridine-2-carboxylate] | 2.3 µM | 91% | – | –
15 | CCc1ccc(-c2ccc(C(=O)OC)nc2-c2ccncc2)cc1 [Example 52, Methyl 5-(4-Ethylphenyl)-6-(pyridin-4-yl)pyridine-2-carboxylate] | – | 90% | 0.34 µM | –
16 | CC(=O)c1ccc(-c2ccccc2)c(-c2ccccc2)n1 [Example 75, 1-(5,6-Diphenyl-pyridin-2-yl)-ethanone] | > 10 µM | 51% | – | –
17 | CCC(=O)c1ccc(-c2ccccc2)c(-c2ccccc2)n1 [Example 76, 1-(5,6-Diphenyl-pyridin-2-yl)-propan-1-one] | 3.4 µM | 41% | – | –
18 | CCC(=O)c1ccc(-c2ccccc2)c(-c2ccc(C(F)(F)F)cc2)n1 [Example 79, 1-[5-Phenyl-6-(4-trifluoromethyl-phenyl)-pyridin-2-yl]-propan-1-one] | 2.6 µM | 30% | – | –
19 | CCc1ccc(-c2nnc(C(=O)OC)nc2-c2ccccc2)cc1 [Example 89, Methyl 6-(4-Ethyl-phenyl)-5-phenyl-1,2,4-triazine-3-carboxylate] | 2.3 µM | 64% | – | –
20 | COCc1ccc(-c2ccccc2)c(-c2ccccc2)n1 [Example 92, 6-Methoxymethyl-2,3-diphenyl-pyridine] | 2.4 µM | 59% | – | –
21 | COC(=O)c1cnc(-c2ccccc2)c(-c2ccccc2)n1 [Example 93, Methyl 5,6-Diphenyl-pyrazine-2-carboxylate] | 4.1 µM | 62% | – | –
22 | CC(=O)c1cnc(-c2ccccc2)c(-c2ccccc2)n1 [Example 94, 1-(5,6-Diphenyl-pyrazin-2-yl)-ethanone] | 2.3 µM | 61% | – | –
23 | CCC(=O)c1cnc(-c2ccccc2)c(-c2ccccc2)n1 [Example 95, 1-(5,6-Diphenyl-pyrazin-2-yl)-propan-1-one] | 4.4 µM | 95% | – | –
24 | CCCCCCCCCCCCC/C=C/[C@@H](O)[C@@H](N)COP(=O)(O)O [Example S1P, Sphingosine-1-Phosphate] | – | – | – | > 30%
